Test results as given in patent publication US20050065140A1, “Serotonine reuptake inhibitor” (priority 2001, published 2005).

Tests used:
[1] = molecular target: T1, [^3H]paroxetine binding (serotonin reuptake), cerebral cortex membrane preparation (Rattus norvegicus, UniProt P31652); assay: Screening test using [^3H]paroxetine binding (Test Example 1); conditions: [^3H]paroxetine 0.15 nM, test concentration not given
T1 construct: 790 μl of the cerebral cortex membrane preparation (150 μg/tube in terms of protein); from tissue; host or cells: rat cerebral cortex membrane preparation
T1 sequence (P31652 whole entry): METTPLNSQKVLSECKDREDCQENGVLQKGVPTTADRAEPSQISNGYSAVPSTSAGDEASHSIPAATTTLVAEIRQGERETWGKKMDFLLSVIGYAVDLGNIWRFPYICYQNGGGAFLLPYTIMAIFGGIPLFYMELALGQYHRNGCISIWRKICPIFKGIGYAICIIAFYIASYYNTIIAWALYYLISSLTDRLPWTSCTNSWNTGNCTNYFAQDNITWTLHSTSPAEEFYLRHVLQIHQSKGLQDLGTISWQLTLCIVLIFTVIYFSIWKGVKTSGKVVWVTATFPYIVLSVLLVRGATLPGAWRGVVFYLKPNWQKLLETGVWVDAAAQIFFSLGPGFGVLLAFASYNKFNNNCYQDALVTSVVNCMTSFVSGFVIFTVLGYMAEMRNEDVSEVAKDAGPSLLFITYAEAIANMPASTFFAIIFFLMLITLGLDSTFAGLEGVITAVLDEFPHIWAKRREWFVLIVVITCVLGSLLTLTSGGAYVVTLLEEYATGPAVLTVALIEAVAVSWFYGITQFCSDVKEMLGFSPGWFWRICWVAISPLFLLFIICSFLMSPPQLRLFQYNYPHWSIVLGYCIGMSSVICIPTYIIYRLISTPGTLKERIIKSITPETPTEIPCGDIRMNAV
Protocol: Screening Test Using [^3H]Paroxetine Binding
The membrane preparation was prepared according to the method^1a) of D'amato et al. In detail, after a male rat was decapitated, the whole brain was immediately removed and the cerebral cortex was dissected therefrom under ice-cooling. A buffer solution (50 mM Tris-HCl (pH=7.4), 120 mM NaCl, 5 mM KCl) was added to the cerebral cortex in an amount of 25 times the wet weight of the cerebral cortex, followed by homogenization in an ice bath by the use of a Teflon-glass homogenizer. The homogenate was centrifuged at 4° C. and 45,000×g for 10 minutes, and the resulting precipitate was dispersed in an ice-cooled buffer solution (50 mM Tris-HCl (pH=7.4), 120 mM NaCl, 5 mM KCl) by the use of Hiscotron™, followed by centrifugation at 4° C. and 45,000×g for 10 minutes. The resulting precipitate was re-suspended and the washing procedure was repeated. The membrane preparation thus obtained was suspended in the same buffer solution as described above, and then subjected to cryopreservation at −80° C.
[^3H]paroxetine binding was measured according to the method^1b) of Habert E et al. In detail, 200 μl of a dilution (final concentration: 0.15 nM) of [^3H]paroxetine with 50 mM Tris-HCl (pH=7.4) buffer containing 120 mM NaCl and 5 mM KCl, 790 μl of the cerebral cortex membrane preparation (150 μg/tube in terms of protein), 10 μl of a solution of a test drug in dimethyl sulfoxide and 1 ml of the above-mentioned buffer solution were mixed to prepare a liquid having a total volume of 2 ml. After this liquid was allowed to react at room temperature for 60 minutes, it was immediately filtered by suction at a low pressure through glass fiber filter. The glass fiber filter was washed 4 times with 4 ml of the same buffer solution as above and then transferred to a glass vial containing 4 ml of ACS-II (Amersham), and the radioactivity remaining on the filter was measured with a liquid scintillation counter.
Non-specific binding of [^3H]paroxetine was defined as the amount of [^3H]paroxetine bound in the presence of 100 μM 5-HT.
(§1) Rate of binding inhibition was calculated by the following equation:
(§2) Rate of binding inhibition (%)=100−100×{[amount of [^3H]paroxetine bound in the presence of test substance]−[amount of [^3H]paroxetine bound in the presence of 100 μM 5-HT]/[amount of [^3H]paroxetine bound in the absence of test substance]−[amount of [^3H]paroxetine bound in the presence of 100 μM 5-HT]}

[2] = molecular target: T2, serotonin 1A receptors ([^3H]8-OH-DPAT binding, hippocampus membrane preparation) (Rattus norvegicus, UniProt P19327); assay: [^3H]8-OH-DPAT binding test (Test Example 2); conditions: [^3H]8-OH-DPAT 2 nM, test concentration not given
T2 construct: 146 μl of the hippocampus membrane preparation (80 μg/tube in terms of protein); from tissue; host or cells: rat hippocampus membrane preparation
T2 sequence (P19327 1-422): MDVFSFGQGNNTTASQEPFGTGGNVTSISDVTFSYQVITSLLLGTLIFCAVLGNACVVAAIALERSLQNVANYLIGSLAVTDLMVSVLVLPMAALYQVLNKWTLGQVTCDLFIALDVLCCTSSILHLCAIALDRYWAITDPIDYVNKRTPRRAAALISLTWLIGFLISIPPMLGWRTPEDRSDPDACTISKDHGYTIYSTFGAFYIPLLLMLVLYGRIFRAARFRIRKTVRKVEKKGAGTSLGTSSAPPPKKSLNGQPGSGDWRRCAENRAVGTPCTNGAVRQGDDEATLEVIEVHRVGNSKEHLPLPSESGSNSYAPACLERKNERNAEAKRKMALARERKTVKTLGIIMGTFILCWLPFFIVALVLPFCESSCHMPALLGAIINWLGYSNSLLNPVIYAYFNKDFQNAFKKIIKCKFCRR
Protocol: [^3H]8-OH-DPAT Binding Test
The test was carried out according to the method^2 of Hall M. D. et al. After about one week of pre-breeding, a male rat was decapitated and the brain was immediately removed. The hippocampus was dissected from the brain on ice, and 50 mM Tris-HCl (pH=7.4) was added to the hippocampus in an amount of 40 times the wet weight of the hippocampus, followed by homogenization (3 min, 1 stroke/min) in an ice bath by the use of a Teflon-glass homogenizer. Then, the homogenate was centrifuged (4° C.) at 40,000×g for 10 minutes. The resulting precipitate was dispersed in an ice-cooled buffer solution (50 mM Tris-HCl (pH=7.4)) by the use of Hiscotron™, followed by centrifugation (4° C.) at 40,000×g for 10 minutes. Moreover, the resulting precipitate was re-suspended and the washing procedure was repeated once. The precipitate thus obtained was dispersed in an ice-cooled buffer solution (50 mM Tris-HCl (pH=7.4)) by the use of Hiscotron™, and the resulting dispersion was incubated at 37° C. for 1 hour and then centrifuged (4° C.) at 40,000×g for 10 minutes. Furthermore, the resulting precipitate was re-suspended and the washing procedure was repeated once. The membrane preparation thus obtained was suspended in the same buffer solution as described above, and then subjected to cryopreservation at −80° C.
Measurement was carried out by using a liquid for reaction (total volume: 200 μl) obtained by adding 50 μl of [^3H]8-OH-DPAT (final concentration: 2 nM), 4 μl of a solution of a test drug and 146 μl of the hippocampus membrane preparation (80 μg/tube in terms of protein) to a buffer solution containing 50 mM Tris-HCl (pH=7.4) and 4 mM CaCl2. After the liquid for reaction was allowed to react at room temperature for 30 minutes, it was immediately filtered by suction at a low pressure through glass fiber filter. The glass fiber filter was washed twice with 250 μl of a buffer solution and then added to a glass vial containing 4 ml of ACS-II (Amersham), and the radioactivity bound to receptors and remaining on the filter was measured with a liquid scintillation counter. Non-specific binding of [^3H]8-OH-DPAT was defined as the amount of [^3H]8-OH-DPAT bound in the presence of 1 μM 8-OH-DPAT.
as §1
as §2, with “of [^3H]8-OH-DPAT” for “of [^3H]paroxetine”, “of 1” for “of 100”, “μM 8-OH-DPAT]/[amount” for “μM 5-HT]/[amount”, “μM 8-OH-DPAT]}” for “μM 5-HT]}”

melting point [°C]	SMILES	Rate of inhibition of [^3H]paroxetine binding (%) [1] [%]	Rate of inhibition of [^3H]8-OH-DPAT binding (%) [2] [%]
290	CCN[C@H]1CC[C@H](CCN2CCC(Cc3cc(OC(C)C)ccc3Br)CC2)CC1.Cl.Cl		
134	CO[C@H]1CC[C@@H](CCCN2CCC(Cc3cc(OC(C)C)ccc3Br)CC2)CC1.Cl		
242	CCN(CC)[C@H]1CC[C@H](CCN2CCC(Cc3cc(OC)ccc3Br)CC2)CC1.Cl.Cl		
253	CCN(CC)[C@H]1CC[C@H](CCN2CCC(Cc3cc(OC(C)C)ccc3Br)CC2)CC1.Cl.Cl		
209	CCN(CC(F)(F)F)[C@H]1CC[C@H](CCN2CCC(Cc3cc(OC)ccc3Br)CC2)CC1.Cl.Cl		
184	COc1ccc(Br)c(CC2CCN(CCC3(CCO)CCCC3)CC2)c1.Cl		
245	Cl.Cl.Fc1ccc(Br)c(CC2CCN(CC3CCc4ccccc4N3)CC2)c1 (stereo not drawn)		

Second part, the molecule before the results:

SMILES	melting point [°C]	Rate of inhibition of [^3H]paroxetine binding (%) [1] [%]	Rate of inhibition of [^3H]8-OH-DPAT binding (%) [2] [%]
COc1ccc(Br)c(CC2CCN(CCC[C@H]3CC[C@@H](N)CC3)CC2)c1.Cl.Cl	238		
CCN[C@H]1CC[C@@H](CCCN2CCC(Cc3cc(OC)ccc3Br)CC2)CC1.Cl.Cl	234		
COCC(=O)N[C@H]1CC[C@H](CCN2CCC(Cc3cc(OC)ccc3Br)CC2)CC1.Cl	132		
CCN(CCO)[C@H]1CC[C@H](CCN2CCC(Cc3cc(OC)ccc3Br)CC2)CC1.Cl.Cl	259		
COc1ccc(Br)c(CC2CCN(CC[C@H]3CC[C@@H](CO)CC3)CC2)c1.Cl	209		
CCOc1ccc(Br)c(CC2CCN(CC3CCc4ccccc4N3)CC2)c1.Cl.Cl (stereo not drawn)	228		
COc1ccc(Br)c(CC2CCN(CCC3CCNCC3)CC2)c1.Cl.Cl [Example 1, 4-(2-Bromo-5-methoxybenzyl)-1-(2-(4-piperidinyl)ethyl)piperidine Dihydrochloride]		81	47
CCNC(=O)N1CCC(CCN2CCC(Cc3cc(OC)ccc3Br)CC2)CC1.Cl [Example 32]		97	73
CCN[C@H]1CC[C@@H](CCN2CCC(Cc3cc(OC(C)C)ccc3Br)CC2)CC1.Cl.Cl [Example 41, cis-N-(4-(2-(4-(2-bromo-5-isopropoxybenzyl)-piperidin-1-yl)ethyl)cyclohexyl)-N-ethylamine Dihydrochloride]	247	78	86
CCN(C(C)=O)[C@H]1CC[C@H](CCN2CCC(Cc3cc(OC(C)C)ccc3Br)CC2)CC1.Cl [Example 52, trans-N-(4-(2-(4-(2-bromo-5-isopropoxy-benzyl)piperidin-1-yl)ethyl)cyclohexyl)-N-ethylacetamide Hydrochloride]		90	60
COc1ccc(Br)c(CC2CCN(CCC3(CCO)CCCCC3)CC2)c1.Cl [Example 60, 2-(1-(2-(4-(2-Bromo-5-methoxybenzyl)-piperidin-1-yl)ethyl)cyclohexyl)ethanol Hydrochloride]		91	98
COc1ccc(Br)c(CC2CCN(CC[C@H]3CC[C@@H](CCO)CC3)CC2)c1.Cl [Example 63]	172		
COc1ccc(N2CC(CN3CCC(Cc4cc(OC)ccc4Br)CC3)OC2=O)cc1.Cl (stereo not drawn) [Example 72, 5-(4-(2-Bromo-5-methoxybenzyl)piperidin-1-yl)methyl-3-(4-methoxyphenyl)oxazolidin-2-one hydrochloride]		99	97
